Test results published in article PMC7029871, “Development and validation of a sensitive LC-MS/MS method for the quantitation of IMB-YH-4py5-2H, an antituberculosis candidate, and its application to the pharmacokinetic study” (PLoS ONE, 2020).

How the values were obtained:
[1] = tested on: intracellular M. tuberculosis H37Rv; assay: Intracellular activity assay in infected macrophages; format: cell-based, Mycobacterium tuberculosis; conditions: three-day incubation, infected J744 macrophages, untreated 6.47±0.04
[2] = cited from earlier work
[3] = design: method as in PMID 26579477; conditions: oral administration of 200 mg/kg; cited from earlier work

| Structure (SMILES) | Log10CFU ([1]; 0.5 μg/mL) | Log10CFU ([1]; 1 μg/mL) | Log10CFU ([1]; 2 μg/mL) | solubility [2] | serum Cmax [3] | time until serum level decreased below the therapeutic range [3] |
| --- | --- | --- | --- | --- | --- | --- |
| NNC(=O)c1ccncc1 [Isoniazid, reference compound] | 4.60±0.05 Log10CFU | 3.57±0.06 Log10CFU | 4.01±0.14 Log10CFU |  |  |  |
| COC(=O)/C=C/C(=O)c1ccc(OC)cc1 [YH-8, (E)-Methyl-4-aryl-4-oxabut-2-enoate, reference compound] |  |  |  | poor solubility | lower than 0.5 μg/mL | less than 1 hour |
